# Data taken from US20090247495A1, “CU[…] AND USES THEREOF” (priority 2007, published 2009).
# Legend:
# K562 cells = assay: Flow cytometry for apoptosis analysis (Annexin V / PI), K562; type: cell-based, human; settings: 80 nM, 48 hours
# Protocol: 10^5/ml K562 cells were treated with cucurbitacin B in the presence of complete medium containing 10% FBS for 48 hours. The changes in cell morphology were visualized using Leica DMIL (Leica Microsystem). Cells were harvested and rinsed twice with ice-cold PBS (pH7.4) and a total 2.5×10^5 K562 cells were stained with 10 μl Annexin V and 10 μl propidium iodide in 100 μl 1×binding buffer for 15 minutes in dark and then subjected to apoptosis analysis with FACSCalibar Flow cytometer system (FACS Calibur BD Flow Cytometer). • 6.1.5 Flow Cytometry for Cell Cycle Analysis
# Appropriate number of cell density were seeded into T-25 culture flask and treated with different doses of cucurbitacin B for 2 days. The apoptotic effects of cucurbitacin B on the cells were detected using Flow Cytometry analysis after stained with Anx.V and PI for 15 minutes. […] Cucuribitacin B induced apoptosis in a dose dependent manner, among them, 80 nM induced the highest apoptotic effect in K562 cells, with over 50% cells in apoptotic population and 10% cells in the necrotic population (late apoptotic and necrotic phase). The effect of cucurbitacin B on apoptosis and cell cycle profile in K562 cells were analyzed using flow cytometry, as depicted in FIG. 3.
# [1] = system: HL60 cells and U937 cells; assay: Cytocentrifuged, fixed and stained cells (multinucleation); type: cell-based, human; settings: 1×10^−8 M or 5×10^−8 M, 96 hours
# Protocol: HL60 cells, as depicted in FIGS. 13A to 13C, and U937 cells, as depicted in FIGS. 13D to 13F, were cytocentrifuged, fixed and stained. Cells were treated with either 1×10^−8 M (FIGS. 13B, 13C and 13E) or 5×10^−8 M (FIG. 13F) cucurbitacin B for 96 hours, and compared with diluent treated control cells (FIGS. 13A and […]).
# Stat3 = assay: Western blot of Stat3 activation in HepG2, HT29 and MCF-7 cells; type: cell-based, human
# [2] = Gross and microscopic examination of organs of treated mice; type: in vivo, nude mice; settings: i.p. 1 mg/kg three times a week, six weeks
# Protocol: One million human MDA-MB-231 breast cancer cells/Matrigel (vol 1:1) were inoculated isotopically into the breasts of nude mice. The mice received intraperitoneal injections of 1 mg/ml of cucurbitacin B 3 times a week starting on the day after inoculation of the cells. The longitudinal and the transverse diameter, and the height were measured once a week. The volume was calculated by multiplying these elements, and the relative tumor size was determined by dividing the product by the initial volume. After 6 weeks, the mice were sacrificed to weigh the dissected tumors. At that moment, blood was taken for analysis, where organs and tumors were inspected, dissected, fixed and stained with hematoxylin-eosin and/or Ki-67. Data were expressed as mean±SD. Statistical analysis was performed by student's t test.
# Six weeks after i.p. treatment with either vehicle or cucurbitacin B 1 mg/kg three times a week, mice were euthanized and tumors were observed and weighed. Results represented the mean and SD of 9 treated and 9 control tumors. Statistical analysis was performed by student's t test.
# [3] = system: 59 human cancer cell lines; assay: SRB growth inhibition, 59-NCI Cancer Cell Line Panel; type: cell-based; settings: 48 hours, range over 59 cell lines
# From the text: Human cancer cell lines from the 59-NCI Cancer Cell Line Panel including leukemia, melanoma and cancers of breast, brain, colon, lung, ovary, prostate and kidney, were purchased from the National Institute of Cancer (USA). The growth inhibition (GI50) of these cell lines treated with cucurbitacin B and cucurbitacin D in various concentrations was investigated.
# 59 human cancer cell lines were maintained in RPMI 1640 (Invitrogen Life Technologies, CA, USA) supplemented with 5% Fetal Bovine Serum, 2 mM L-glutamine and 1% Penicillin/Streptomycin (Invitrogen Life Technologies) at 37° C. with 5% CO2. All chemicals were purchased from Sigma (St. Louis, Mo., USA) unless specified otherwise.
# Sulforhodamine B (SRB) assay was applied to determine the cytostatic effect of cucurbitacin B and cucurbitacin D. SRB is a dye that binds to cellular proteins and will be dissolved in base. The biomass of total protein can be measured at 520 nm using a plate reader.
# Cells were inoculated into 96-well microtiter plates including “Time zero” (Tz) plates in 100 μl at cell concentrations from 5000 to 40,000 cells per well according to NCI guideline. The cells were incubated at 37° C. with 5% CO2 for 24 hours. […] Bound SRB was solubilized with 100-200 ul per well of 10 mM trizma base and absorbance was measured at a wavelength of 520 nm. The percentage of growth inhibition was calculated as follows: […]
# [4] = system: Human cancer cell lines from the 59-NCI Cancer Cell Line Panel; assay: Apoptosis (Annexin V-FITC / PI) by flow cytometry, 18 selected NCI panel cell lines; type: cell-based; settings: 48 hours; GI50, ½ GI50 and ¼ GI50
# Protocol: Apoptosis is the important mechanism for cell death in normal cells. In cancer cells, this mechanism fails and cells proliferate without control. Human cancer cell lines from the 59-NCI Cancer Cell Line Panel including leukemia, melanoma and cancers of breast, brain, colon, lung, ovary, prostate and kidney were purchased from the National Institute of Cancer. […] They were treated with cucurbitacin B and cucurbitacin D at three different concentrations to elucidate their ability to induce any changes in cell cycle.
# Cancer cell lines were maintained in RPMI 1640 supplemented with 5% Fetal Bovine Serum, 2 mM L-glutamine and 1% Penicillin/Streptomycin at 37° C. with 5% CO2. Cells were inoculated into tissue culture flask at cell concentrations from 50000 to 400,000 cells/ml according to the NCI guideline. The cells were incubated at 37° C. with 5% CO2 for 24 hours. Cucurbitacin B and cucurbitacin D were added to the cells of final concentrations ranging from 6 to 350 nM (GI50, ½ GI50 and ¼ GI50 of particular cell line) for 48 hours at 37° C. with 5% CO2. Cells (3×10^5) were then harvested and stained with 5 μl Annexin V-FITC and 10 μl propidium iodine (Becton Dickinson, CA, USA) for 15 minutes at room temperature. Ten thousands events were collected by the FACScaliber and the percentage of different cell populations were analyzed by the CellQuest™ software (Becton Dickinson).
smiles,measurement,setting,value
CC(=O)OC(C)(C)/C=C/C(=O)[C@](C)(O)C1[C@H](O)C[C@@]2(C)C3CC=C4C(C[C@H](O)C(=O)C4(C)C)[C@]3(C)C(=O)C[C@]12C (some centres unmarked) [cucurbitacin B],cells in apoptotic population,K562 cells,over 50%
same,cells in the necrotic population (late apoptotic and necrotic phase),K562 cells,10%
same,cell morphology (multinucleation),[1],"enlarged, multinucleated cells"
same,Stat3 activation,"Stat3; HepG2 cells and HT29 cells, 25 ug/ml, 30 minutes",inhibited significantly
same,Stat3 activation,Stat3; MCF-7 cells,no significant change
same,"gross and microscopic examination of the liver, spleen, and peritoneum",[2],no significant difference
same,GI50,[3],5.8 to 164 nM
same,cell lines in which apoptosis was induced,[4],9 out of 18
